# Like-named read-outs stand apart in the source and are kept apart here.
# Key:
# [1] = tested on: C. albicans mature biofilms; test: Metabolic activity of mature biofilms grown at an air-liquid interface; type: cell-based
# [2] = tested on: C. albicans (GDH2346) hyphae; test: Activity against hyphae, Live-Dead stain fluorescence microscopy; type: cell-based; conditions: 8 μg/mL, 15 to 60 minutes
# Protocol: C. albicans (GDH2346) was grown in 10% FCS for 3 days to achieve hyphae. Hyphae were treated with Compound 100 (8 μg/mL) for 0 minutes (see, FIG. 2A), 15 minutes (see, FIG. 2B), 30 minutes (see, FIG. 2C), or 60 minutes (see, FIG. 2D). Cultures were stained with FungaLight Live-Dead stain (InVitrogen) and observed under fluorescence microscopy (100× magnification).
# [3] = tested on: C. albicans; test: Mouse Candida sepsis model, kidney burden; type: in vivo; conditions: neutropenic mice, IV 1 hour after infection, kidneys at 24 hours
# Protocol: Mice were made neutropenic with i.p. injections of cyclophosphamide (150 mg/kg in 10 mL/kg) at 4 and 1 day before inoculation. Each animal was then inoculated by injecting 0.1 mL of inoculum of C. albicans in a tail vein. The standard was administered orally and the test compounds by IV 1 hour after infection. The kidneys were collected from four mice in Group 1 at 1 hour after infection and from the remaining mice in the study at 24 hours after infection. Kidneys were combined in a sterile tube. An aliquot of sterile PBS were added to each tube and the contents homogenized with a tissue homogenizer. Serial dilutions of the tissue homogenates were conducted, 0.1 mL aliquots were spread on SDA plates and the plates incubated at 35° C. overnight. The CFU/kidneys were determined from colony counts. One-way ANOVA with Bonferroni Multiple Comparisons Test was performed using GraphPad InStat version 3.00 for Windows 95, GraphPad Software, San Diego Calif. USA.
# [4] = tested on: C. albicans; test: Disseminated candidiasis model, survival study; type: in vivo; conditions: neutropenic mice
# Protocol: Mice were made neutropenic with i.p. injections of cyclophosphamide (150 mg/kg in 10 mL/kg) at 4 and 1 day before inoculation. Each animal was then inoculated by injecting 0.1 mL of inoculum of C. albicans in a tail vein. At 2 hours post-infection, the standard was administered orally and the test compound by IV. Compounds were dosed once daily for 4 days.
# The kidneys were collected from four mice in Group 1 at 2 hours after infection, from four mice in Groups 2-5 at five days after infection, and from all surviving mice in the infected treatment groups. An aliquot of sterile PBS were added to each tube and the contents homogenized with a tissue homogenizer. Serial dilutions of the tissue homogenates were conducted, 0.1 mL aliquots were spread on SDA plates and the plates incubated at 35° C. overnight. The CFU/kidneys were determined from colony counts.
# Survival data was analyzed using the log-rank (Mantel-Cox) test and one-way ANOVA with Tukey's Multiple Comparisons Test was performed on the yeast density and change in body weight data (GraphPad InStat version 5.04).
# [5] = Cytotoxicity, MTS viability assay; type: cell-based, human; conditions: Table 6
# Outline: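 Cytotoxicity in mouse 3T3 fibroblasts and human HepG2 liver cells measured by MTS viability assay. Values reported as EC50.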
# [6] = tested on: A. flavus (NRRL3357); test: Anti-Aspergillus screen, CLSI M38-A, visual inhibition of growth; type: cell-based; conditions: screening concentration 10 μM, 24-48 hours
# Protocol: (§1) The in vitro efficacy of a library of compounds was assessed for antifungal activity against A. niger (AN1), A. fumigatus ([…]) and A. flavus (NRRL3357) and compared to that of Itraconazole. For a subset of compounds selected based upon efficacy in the screening study a full MIC profile was conducted. Efficacy of test articles was determined in RPMI 1640 broth with MOPS buffered to pH7.2 in accordance with CLSI guidelines M38-A for Antifungal Susceptibility Testing of Filamentous Fungi. The method was modified by using flat well plates to allow microscopic identification of growth. The final screening concentration of each test article was 10 μM. Assay plates were incubated aerobically at 37° C. for 24-48 hours. Following incubation, plates were assessed visually (by eye and microscopically) for inhibition of growth. Inhibition was recorded at 50%, 80% and 100% inhibition compared to the positive control.
# [7] = tested on: A. fumigatus (A1163); test: as above; type: cell-based; conditions: screening concentration 10 μM, 24-48 hours
# Protocol: as §1
# [8] = tested on: A. niger (AN1); test: as above; type: cell-based; conditions: screening concentration 10 μM, 24-48 hours
# Protocol: as §1
smiles,measurement,setting,value
NCCSc1cc(SCCN)c(C(F)(F)F)cc1NC(=O)c1cc(C(=O)Nc2cc(C(F)(F)F)c(SCCN)cc2SCCN)ncn1 [Compound 100],metabolic activity in mature biofilms,[1],significant reduction of metabolic activity
same,death of hyphal cultures,[2],rapidly caused death of hyphal cultures at low concentrations
NCCCOc1cc(OCCCN)cc(-c2ccc3c(c2)c2cc(-c4cc(OCCCN)cc(OCCCN)c4)ccc2n3CCCN)c1 [Compound 135],reductions in tissue burden from treatment onset,[3],≥ 1.5 log10
same,"survival over a 14-day period, p between Fluconazole and compound",[4]; 10 mg/kg IV once daily for 4 days,< 0.01
same,"survival over a 14-day period, p between Fluconazole and compound",[4]; 15 mg/kg IV once daily for 4 days,< 0.01
N=C(N)N1CCN(c2ccc(-c3cc(-c4ccc(N5CCN(C(=N)N)CC5)cc4)ncn3)cc2)CC1 [Compound 136],EC50,"[5]; human, HepG2 cells (transformed liver), read-out: Cytotoxicity EC50 Human HepG2",453 µM
same,EC50,"[5]; mouse, 3T3 fibroblasts, read-out: Cytotoxicity EC50 Mouse 3T3",311 µM
same,inhibition at 10 µM,[6],100%
same,inhibition at 10 µM,[7],100%
same,inhibition at 10 µM,[8],100%

# Source: US8895561B2, “Compounds and methods for treating candidiasis and aspergillus infections” (Cellceutix Corporation, priority 2012, dated 2014)
